The target in assay [1] is T1, BACE1 (Homo sapiens (Human), UniProt P56817). In words: In vitro BACE1 cell-based assay (Aβ40 in conditioned medium of cells stably expressing APP, HTRF). As for the experimental part:
In Vitro BACE1 Cell-Based Assay
The cell-based assay measures inhibition or reduction of Aβ40 in conditioned medium of test compound treated cells expressing amyloid precursor protein. Cells stably expressing Amyloid Precursor Protein (APP) were plated at a density of 45K cells/well in 384 well plates (Corning/BioCoat 354663). The test compounds were then added to cells in 22-point dose response concentrations with the starting concentration being 62.5 μM. The compounds were diluted from stock solutions in DMSO and the final DMSO concentration of the test compounds on cells was 0.625%. The cells were cultivated overnight at 37° C. and 5% CO2 in DMEM supplemented with 10% FBS. After 24 h of incubation with the test compounds, the conditioned media was collected and the Aβ40 levels were determined using HTRF (Homogeneous Time Resolved Fluorescence). The IC50 of the compound was calculated from the percent of control or percent inhibition of Aβ40 as a function of the concentration of the test compound.
The HTRF to detect Aβ40 was performed in 384 well plates (Costar 3658). The antibody pair that were used to detect Aβ40 from cell supernatants were ConfAb40 antibody (Amgen in-house) and biotinylated 6E10 (BIOLEGEND). As an alternative to ConfAb40, a commercially available antibody, Anti-beta Amyloid 1-40 antibody [BDI350] from Abcam, Cambridge, Mass. 02139-1517 (Product code: ab20068), may be used in this assay. The concentrations were 0.35 μg/mL of ConfAb40 antibody and 1.33 μg/mL of 6E10-biotinylated antibody, as well as 4.5 μg/mL of Streptavidin Allophycocyanin Conjugate (ThermoFisher Scientific) in HTRF Buffer ([…], 1% BSA, 0.5% Tween 20).
The conditioned media was incubated with above antibodies and Streptavidin Allophycocyanin Conjugate for 30-60 minutes at 23° C. The final readout was performed on Envision from PerkinElmer.
Target sequence in this assay (P56817 46-501, species assumed): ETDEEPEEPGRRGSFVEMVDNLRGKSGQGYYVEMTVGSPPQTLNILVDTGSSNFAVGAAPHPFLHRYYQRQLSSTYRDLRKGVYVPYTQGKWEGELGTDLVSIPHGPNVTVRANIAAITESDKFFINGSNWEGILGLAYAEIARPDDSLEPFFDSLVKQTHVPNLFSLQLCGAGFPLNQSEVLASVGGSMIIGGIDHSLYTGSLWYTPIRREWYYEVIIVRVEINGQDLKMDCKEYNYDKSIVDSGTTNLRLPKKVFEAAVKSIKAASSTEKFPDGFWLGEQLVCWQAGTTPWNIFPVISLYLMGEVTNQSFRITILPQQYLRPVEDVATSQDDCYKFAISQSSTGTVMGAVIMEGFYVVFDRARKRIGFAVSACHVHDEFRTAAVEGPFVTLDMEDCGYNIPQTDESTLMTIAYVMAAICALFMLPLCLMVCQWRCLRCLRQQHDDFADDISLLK

For assay [2], the target named is T1, BACE1. In words: In vitro enzymatic BACE1 FRET assay. It is filed as biochemical. Particulars: pH 4.5, read-out: BACE1 Enzyme IC50.
Target sequence in this assay (P56817 46-501): as the sequence (P56817 46-501, species assumed) above
The target of a further assay is Recombinant CatD (Homo sapiens (Human), UniProt P07339). In words: In vitro enzymatic Cathepsin D (CatD) FRET assay. It is filed as biochemical. As to conditions: pH 3.5, read-out: Cat D Enzyme IC50.
Recombinant CatD, sequence (P07339 65-412): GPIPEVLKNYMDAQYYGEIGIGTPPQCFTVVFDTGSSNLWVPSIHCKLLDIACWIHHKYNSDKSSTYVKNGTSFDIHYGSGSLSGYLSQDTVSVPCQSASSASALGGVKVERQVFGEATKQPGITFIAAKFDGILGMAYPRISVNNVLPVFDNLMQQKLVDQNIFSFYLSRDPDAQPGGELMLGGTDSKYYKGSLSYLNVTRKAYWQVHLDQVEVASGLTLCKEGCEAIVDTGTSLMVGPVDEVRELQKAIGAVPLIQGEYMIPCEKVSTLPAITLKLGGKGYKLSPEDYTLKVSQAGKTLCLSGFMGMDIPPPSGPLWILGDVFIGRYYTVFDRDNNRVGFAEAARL
Another assay deals with human recombinant BACE2 (Homo sapiens (Human), UniProt Q9Y5Z0). As to the kind of experiment: In vitro enzymatic BACE2 FRET assay. It is filed as biochemical. As to conditions: pH 4.5, read-out: BACE2 Enzyme IC50.
human recombinant BACE2, sequence (Q9Y5Z0 63-518): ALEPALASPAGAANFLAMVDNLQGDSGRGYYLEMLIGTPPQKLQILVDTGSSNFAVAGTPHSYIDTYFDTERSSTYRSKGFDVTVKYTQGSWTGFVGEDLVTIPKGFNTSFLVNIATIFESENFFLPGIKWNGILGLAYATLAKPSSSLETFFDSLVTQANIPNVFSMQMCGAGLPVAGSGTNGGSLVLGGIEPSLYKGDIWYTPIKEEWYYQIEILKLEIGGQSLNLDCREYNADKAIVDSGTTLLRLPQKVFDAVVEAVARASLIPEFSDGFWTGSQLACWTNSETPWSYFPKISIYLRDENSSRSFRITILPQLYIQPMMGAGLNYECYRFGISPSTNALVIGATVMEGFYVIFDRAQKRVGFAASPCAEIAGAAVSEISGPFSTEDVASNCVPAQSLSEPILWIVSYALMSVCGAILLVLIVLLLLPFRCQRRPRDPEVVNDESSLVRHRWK
[3] abbreviates: Aβ40, 24 h incubation, read-out: BACE1 Cell IC50.

Each structure is given as a SMILES string.

Take `N#Cc1ccc(C#Cc2ccc(F)c([C@@]3(CF)N=C(N)S[C@@]4(CF)C[C@H]43)c2)nc1` [Example 101, 6-((3-((1S,5S,6S)-3-amino-1,5-bis(fluoromethyl)-2-thia-4-azabicyclo[4.1.0]hept-3-en-5-yl)-4-fluorophenyl)ethynyl)nicotinonitrile]: the half-maximal inhibitory concentration (IC50) at BACE1 [1] (setting [3]) amounted to 0.271 µM; on BACE1 [2], 0.104 µM; at Recombinant CatD it was 2860 µM; on human recombinant BACE2, 6.04 µM.

For `NC1=N[C@](CF)(c2cc(C#Cc3ccc(Cl)cn3)ccc2F)[C@@H]2C[C@]2(CF)S1` [Example 102, (1S,5S,6S)-5-(5-((5-chloropyridin-2-yl)ethynyl)-2-fluorophenyl)-1,5-bis(fluoromethyl)-2-thia-4-azabicyclo[4.1.0]hept-3-en-3-amine], the 50% inhibitory concentration (IC50) at BACE1 [1] (setting [3]) came out at 0.685 µM; on BACE1 [2], 0.182 µM; on Recombinant CatD it was 673 µM; at human recombinant BACE2 it was 0.445 µM.

Regarding `CN(C)C(=O)[C@]12C[C@H]1[C@@](C)(c1cc(C#CC3CC3)ccc1F)N=C(N)S2` [Example 132, (1S,5S,6S)-3-amino-5-(5-(cyclopropylethynyl)-2-fluorophenyl)-N,N,5-trimethyl-2-thia-4-azabicyclo[4.1.0]hept-3-ene-1-carboxamide], the IC50 on BACE1 [1] (setting [3]) is 0.059 µM; at BACE1 [2] it was 0.02 µM; on Recombinant CatD it was 46.8 µM; on human recombinant BACE2, 0.007 µM.

On to `N#C/C=C/[C@]12C[C@H]1[C@@](CF)(c1cc(C#Cc3ccc(C#N)cn3)ccc1F)N=C(N)S2` [Example 107, 6-((3-((1R,5S,6S)-3-amino-1-((E)-2-cyanovinyl)-5-(fluoromethyl)-2-thia-4-azabicyclo[4.1.0]hept-3-en-5-yl)-4-fluorophenyl)ethynyl)nicotinonitrile], for which the IC50 was found to be 0.372 µM on BACE1 [1] (setting [3]), 0.047 µM at BACE1 [2], 239 µM on Recombinant CatD and 2.55 µM at human recombinant BACE2.

For the molecule `N#CC[C@]12C[C@H]1[C@@](CF)(c1cc(C#Cc3ccc(C#N)cn3)ccc1F)N=C(N)S2` [Example 106, 6-((3-((1R,5S,6S)-3-amino-1-(cyanomethyl)-5-(fluoromethyl)-2-thia-4-azabicyclo[4.1.0]hept-3-en-5-yl)-4-fluorophenyl)ethynyl)nicotinonitrile], the IC50 on BACE1 [1] (setting [3]) came to 0.623 µM; at BACE1 [2], 0.084 µM; at Recombinant CatD it was 614 µM; at human recombinant BACE2 it was 4.73 µM.

For `C#CCOc1ccc(C#Cc2ccc(F)c([C@@]3(C)N=C(N)S[C@@]4(C(=O)N(C)C)C[C@H]43)c2)nc1` [Example 130, (1S,5S,6S)-3-amino-5-(2-fluoro-5-((5-(2-propyn-1-yloxy)-2-pyridinyl)ethynyl)phenyl)-N,N,5-trimethyl-2-thia-4-azabicyclo[4.1.0]hept-3-ene-1-carboxamide], the 50% inhibitory concentration (IC50) on BACE1 [1] (setting [3]) was 0.152 µM; on BACE1 [2], 0.161 µM; on Recombinant CatD it was 926 µM; at human recombinant BACE2 it was 0.432 µM.

In the case of `Cc1cc(C#N)cnc1C#Cc1ccc(F)c([C@@]2(C)N=C(N)S[C@@]3(C(=O)N4CCCC4)C[C@H]32)c1` [Example 128, 6-((3-((1S,5S,6S)-3-amino-5-methyl-1-(pyrrolidine-1-carbonyl)-2-thia-4-azabicyclo[4.1.0]hept-3-en-5-yl)-4-fluorophenyl)ethynyl)-5-methylnicotinonitrile], the IC50 was determined as 0.002 µM against BACE1 [1], 0.002 µM on BACE1 [2], 508 µM at Recombinant CatD and 0.423 µM on human recombinant BACE2.

For the molecule `N#Cc1cnc(C#Cc2ccc(F)c([C@@]3(CF)N=C(N)S[C@@]4(CF)C[C@H]43)c2)s1` [Example 109, 2-((3-((1S,5S,6S)-3-amino-1,5-bis(fluoromethyl)-2-thia-4-azabicyclo[4.1.0]hept-3-en-5-yl)-4-fluorophenyl)ethynyl)thiazole-5-carbonitrile], the IC50 at BACE1 [1] (setting [3]) was found to be 1.11 µM; at BACE1 [2] it was 0.057 µM; at Recombinant CatD, 705 µM; at human recombinant BACE2, 0.092 µM.

Turning to `N#Cc1ccc(C#Cc2ccc(F)c([C@@]3(CF)N=C(N)S[C@@]4(/C=C/C(=O)N5CCOCC5)C[C@H]43)c2)cc1` [Example 122, 4-((3-((1R,5S,6S)-3-amino-5-(fluoromethyl)-1-((E)-3-morpholino-3-oxoprop-1-en-1-yl)-2-thia-4-azabicyclo[4.1.0]hept-3-en-5-yl)-4-fluorophenyl)ethynyl)benzonitrile], the half-inhibitory concentration (IC50) on BACE1 [1] (setting [3]) worked out at 0.049 µM; at BACE1 [2] it was 0.01 µM; at Recombinant CatD it was 84.3 µM; on human recombinant BACE2, 0.281 µM.

Turning to `CN(C)C(=O)[C@]12C[C@H]1[C@@](C)(c1cc(C#Cc3ccc(C#N)cc3)ccc1F)N=C(N)S2` [Example 129, (1S,5S,6S)-3-amino-5-(5-((4-cyanophenyl)ethynyl)-2-fluorophenyl)-N,N,5-trimethyl-2-thia-4-azabicyclo[4.1.0]hept-3-ene-1-carboxamide], the concentration for half-maximal inhibition (IC50) at BACE1 [1] was found to be 0.058 µM; at BACE1 [2] it was 0.007 µM; at Recombinant CatD, 289 µM; at human recombinant BACE2, 0.251 µM.

In the case of `C#Cc1ccc(F)c([C@@]2(C)N=C(N)S[C@@]3(C(=O)N(C)C)C[C@H]32)c1` [Example 123d, (1S,5S,6S)-3-amino-5-(5-ethynyl-2-fluorophenyl)-N,N,5-trimethyl-2-thia-4-azabicyclo[4.1.0]hept-3-ene-1-carboxamide], the half-maximal inhibitory concentration (IC50) at BACE1 [1] (setting [3]) is 0.328 µM; at BACE1 [2], 0.378 µM; at Recombinant CatD, 50.5 µM; on human recombinant BACE2, 0.142 µM.

`NC1=N[C@](CF)(c2cc(C#Cc3ccc(OCc4ncco4)cn3)ccc2F)[C@@H]2C[C@]2(CF)S1` [Example 108, (1S,5S,6S)-5-(2-fluoro-5-((5-(oxazol-2-ylmethoxy)pyridin-2-yl)ethynyl)phenyl)-1,5-bis(fluoromethyl)-2-thia-4-azabicyclo[4.1.0]hept-3-en-3-amine]: the half-inhibitory concentration (IC50) came to 2.02 µM on BACE1 [1] (setting [3]), 0.735 µM on BACE1 [2], 784 µM on Recombinant CatD and 14.1 µM on human recombinant BACE2.

`N#Cc1ccc(C#Cc2ccc(F)c([C@@]3(CF)N=C(N)S[C@@]4(CC(N)=O)C[C@H]43)c2)nc1` [Example 113, 2-((1R,5S,6S)-3-amino-5-(5-((5-cyanopyridin-2-yl)ethynyl)-2-fluorophenyl)-5-(fluoromethyl)-2-thia-4-azabicyclo[4.1.0]hept-3-en-1-yl)acetamide]: the half-inhibitory concentration (IC50) turned out to be 0.153 µM on BACE1 [1] (setting [3]), 0.116 µM on BACE1 [2], 1420 µM on Recombinant CatD and 3.76 µM at human recombinant BACE2.

Take `C[C@]1(c2cc(C#Cc3ccc(C#N)cn3)ccc2F)N=C(N)S[C@]2(CO)[C@H]1C2(F)F` [Example 110, 6-((3-((1S,5S,6R)-3-amino-7,7-difluoro-1-(hydroxymethyl)-5-methyl-2-thia-4-azabicyclo[4.1.0]hept-3-en-5-yl)-4-fluorophenyl)ethynyl)nicotinonitrile]: the half-maximal inhibitory concentration (IC50) on BACE1 [1] (setting [3]) worked out at 0.355 µM; at BACE1 [2] it was 0.047 µM; on Recombinant CatD, 1160 µM; at human recombinant BACE2, 2.08 µM.

For the molecule `Cc1cc(C#N)cnc1C#Cc1cnc(F)c([C@@]2(C)N=C(N)S[C@@]3(C(=O)N4CCOCC4)CC32)c1` (stereo partly drawn) [Example 136, 6-((5-((1S,5S)-3-amino-5-methyl-1-(morpholine-4-carbonyl)-2-thia-4-azabicyclo[4.1.0]hept-3-en-5-yl)-6-fluoropyridin-3-yl)ethynyl)-5-methylnicotinonitrile], the IC50 is 0.181 µM on BACE1 [1], 0.037 µM at BACE1 [2], over 400 µM on Recombinant CatD and 0.974 µM on human recombinant BACE2.

As to `Cc1cc(OCc2ncco2)cnc1C#Cc1ccc(F)c([C@@]2(C)N=C(N)S[C@@]3(C(=O)N(C)C)C[C@H]32)c1` [Example 131, (1S,5S,6S)-3-amino-5-(2-fluoro-5-((3-methyl-5-(oxazol-2-ylmethoxy)pyridin-2-yl)ethynyl)phenyl)-N,N,5-trimethyl-2-thia-4-azabicyclo[4.1.0]hept-3-ene-1-carboxamide], the IC50 on BACE1 [1] (setting [3]) came to 0.053 µM; at BACE1 [2], 0.041 µM; on Recombinant CatD, 995 µM; on human recombinant BACE2, 2.18 µM.

`COC[C@]12CC1[C@@](C)(c1cc(C#Cc3ncc(Cl)cc3C)ccc1F)N=C(N)S2` (stereo partly drawn) [Example 134, (1S,5S)-5-(5-((5-chloro-3-methylpyridin-2-yl)ethynyl)-2-fluorophenyl)-1-(methoxymethyl)-5-methyl-2-thia-4-azabicyclo[4.1.0]hept-3-en-3-amine]: the half-maximal inhibitory concentration (IC50) at BACE1 [1] was found to be 0.951 µM.
